Where two headings read alike, the source gives them in different places.
Columns and labels:
[1] = Study A: bioavailability of ospemifene after high caloric, high-fat breakfast versus fasted condition; settings: for effect of food intake on bioavailability: 60 mg ospemifene tablet, single oral dose, high caloric (860 kcal), high-fat meal versus fasted, serum
Procedure: Blood samples for pharmacokinetic assessments were drawn during 72 hours at each study period. A washout period between the two treatments was at least 2 weeks. […] The meal provided approximately 150, 170 and 540 kcal from protein, carbohydrate and fat, respectively.

[2] = cited from earlier work
[3] = cited from earlier work; remark: listed apart in the source
[4] = 60 mg ospemifene tablet, single oral dose, low caloric (300 kcal), low-fat meal versus fasted, serum
Procedure: The composition of the light breakfast (approximately 300 kcal) was as follows: two slices of toast with margarine (5 g, fat content 60%), 6 slices (30 g) of cucumber, 240 ml skimmed (non-fat) milk and 100 ml orange juice. The test meal provided approximately 50, 180 and 70 kcal from protein, carbohydrate and fat, respectively.

[5] = Anttila M., 1997; cited from earlier work

With `OCCOc1ccc(/C(=C(/CCCl)c2ccccc2)c2ccc(O)cc2)cc1` [4-hydroxy-ospemifene, 4-hydroxyospemifene] the “effect of food intake on bioavailability” value [1] was “substantial effect”.

In the case of `OCCOc1ccc(/C(=C(/CCCl)c2ccccc2)c2ccccc2)cc1` [ospemifene], the tolerability ([2]; in vivo) is given as “excellent tolerability”, the bioavailability ([2]; oral administration) is given as “rather low” and the “effect of food intake on bioavailability” value [1] is given as “enhanced”. The “effect of food intake on ospemifene absorption (increase)” value ([1]; oral, food intake versus fasted) was 2-3 fold, the aqueous solubility [3] was “low aqueous solubility” and the “effect of food intake on bioavailability” value [4] was “enhanced”.

In the case of `CN(C)CCOc1ccc(/C(=C(/CCCl)c2ccccc2)c2ccccc2)cc1` [toremifene], the aqueous solubility [3] is given as “low aqueous solubility”, the “effect of food intake on absorption” value [5] is given as “retarded the absorption” and the “effect of food intake on bioavailability” value [5] is given as “did not have any positive effect”.
